In data set [1] the test system is MT-4 cells. The data set is described as follows: Test B: Cytotoxicity Assay (protocol of Test A, uninfected cells). Format: cell-based. The following applies: uninfected MT-4 cells, 5 days, CellTiter-Glo. As for the experimental part:
(§1) Test B: Cytotoxicity Assay Compound cytotoxicity and the corresponding CC50 values was determined using the same protocol as described in the antiviral assay (Test A) except that uninfected cells were used.
(In general: In ATP-based viability assays light output follows the ATP content of the culture.)

Data set [2] deals with HIV-IIIb. The data set is described as follows: Test A: Antiviral Assay in MT4 Cells. Format: cell-based, HIV-1. The following applies: Human immunodeficiency virus 1, IIIB, MT4, 120 h, read-out: % inhibition at 3 μM. As for the experimental part: Test A: Antiviral Assay in MT4 Cells
For the antiviral assay, 40 μL of 1× test concentration of 3-fold serially diluted compound in culture medium with 10% FBS was added to each well of a 384-well plate (10 concentrations) in quadruplicate. MT-4 cells were next mixed with HIV-IIIb at an m.o.i of 0.003 for 1 hour, after which time 35 μL of virus/cell mixture (2000 cells) was immediately added to each well containing 40 μL of diluted compound. The plates were then incubated at 37° C. for 5 days. After 5 days of incubation, 25 μl of 2× concentrated CellTiter-Glo™ Reagent (catalog #G7571, Promega Biosciences, Inc., Madison, Wis.) was added to each well containing MT-4 cells. Cell lysis was carried out by incubating at room temperature for 10 min and then chemiluminescence was read.

Data set [3] in a line: Test B: Cytotoxicity Assay (protocol of Test A, uninfected cells). Type of data set: cell-based. The following applies: human, uninfected MT-4 cells, CellTiter-Glo. As for the experimental part:
as §1

Where only a bound is given, the exact number is not on record here.

`CC(=O)Oc1ccc(-c2ccc(F)c(C(N)=O)c2)c([C@H](Cc2cc(F)cc(F)c2)NC(=O)Cn2nc(C(F)F)c3c2C(F)(F)CCC3(F)F)n1` [Compound 20B, (S)-5-(3-carbamoyl-4-fluorophenyl)-6-(1-(2-(3-(difluoromethyl)-4,4,7,7-tetrafluoro-4,5,6,7-tetrahydro-1H-indazol-1-yl)acetamido)-2-(3,5-difluorophenyl)ethyl)pyridin-2-yl acetate]: the CC50 in data set [1] was > 53.2 µM.
On to `Cn1nc(NS(C)(=O)=O)c2c(Cl)ccc(-c3nc(N)cnc3C(Cc3cc(F)cc(F)c3)NC(=O)Cn3nc(C(F)F)c4c3C(F)(F)[C@@H]3C[C@H]43)c21` (stereo partly drawn) [Compound 59D, N-(1-(5-amino-3-(4-chloro-1-methyl-3-(methylsulfonamido)-1H-indazol-7-yl)pyrazin-2-yl)-2-(3,5-difluorophenyl)ethyl)-2-((3bS,4aR)-3-(difluoromethyl)-5,5-difluoro-3b,4,4a,5-tetrahydro-1H-cyclopropa[3,4]cyclopenta[1,2-c]pyrazol-1-yl)acetamide], for which the inhibition at 3 µM in data set [2] came out at 85%. In addition, the CC50 at 5 days in data set [3] was > 46.8 µM.
For `CN1CCN(c2ccc(-c3ccc(Cl)c4c(NS(C)(=O)=O)nn(C)c34)c([C@H](Cc3cc(F)cc(F)c3)NC(=O)Cn3nc(C(F)(F)F)c4c3C(F)(F)[C@@H]3C[C@H]43)n2)CC1` [Compound 60C, N—((S)-1-(3-(4-chloro-1-methyl-3-(methylsulfonamido)-1H-indazol-7-yl)-6-(4-methylpiperazin-1-yl)pyridin-2-yl)-2-(3,5-difluorophenyl)ethyl)-2-((3bS,4aR)-5,5-difluoro-3-(trifluoromethyl)-3b,4,4a,5-tetrahydro-1H-cyclopropa[3,4]cyclopenta[1,2-c]pyrazol-1-yl)acetamide] the same measures were 90% and 9.11 µM.
For `Cn1nc(NS(C)(=O)=O)c2cccc(-c3nc(N)cnc3C(Cc3cc(F)cc(F)c3)NC(=O)Cn3nc(C(F)F)c4c3C(F)(F)[C@@H]3C[C@H]43)c21` (stereo partly drawn) [Compound 61, N-(1-(5-amino-3-(1-methyl-3-(methylsulfonamido)-1H-indazol-7-yl)pyrazin-2-yl)-2-(3,5-difluorophenyl)ethyl)-2-((3bS,4aR)-3-(difluoromethyl)-5,5-difluoro-3b,4,4a,5-tetrahydro-1H-cyclopropa[3,4]cyclopenta[1,2-c]pyrazol-1-yl)acetamide] the same measures were 75% and > 53.2 µM.

For orientation: CC50 means the concentration giving 50% cytotoxicity. Usually inhibition stands for the drop in the measured response relative to a control, in per cent.

Source of the values: patent US9050344B2, “Therapeutic compounds” (Gilead Sciences, Inc., priority 2013, dated 2015).
